Test [1] has as its system EAE mice. Briefly: NA depletion with DSP4 in EAE (MOG35-55 immunized mice). The conditions noted are these: DSP4 50 mg/kg i.p. twice one week apart, MOG immunization 2 weeks later; versus vehicle. It counts as in vivo.
Test [2] has as its system microglial marker Mac1. Briefly: Glial activation: Mac1 staining of brain sections. It counts as in vivo, mice. As to the method:
The effects of DSP4 treatment on glial activation were assessed in hippocampus and frontal cortex by staining for microglial marker Mac1 and astrocyte marker GFAP (FIG. 3). Sections from vehicle and DSP4 treated H6 mice brains were stained with antibodies directed against Mac1 to assess microglial activation (FIG. 3A-C); and GFAP to assess astrocyte activation (FIG. 3D-F). […] FIGS. 3G-3I show quantitative analysis of Mac1 (FIG. 3G-3H) and GFAP staining (FIG. 31).
Hemibrains were fixed overnight in 4% paraformaldehyde in 0.1M phosphate buffer, then overnight in 10% sucrose in 0.1M phosphate buffer, and then frozen in isopentane at −30° C. Serial sections (35 um thick) were prepared on a cryostat, and stored in cryoprotective solution (0.1M phosphate buffer: ethyleneglycol:glycerol 30:40:30) at −20° C. […] Staining was quantified using software provided by the manufacturer (Zeiss AxioVision). GFAP and Mac1 staining was quantified in 3 different areas on each of 4 serial sections for each animal (n=3 or 4 for Mac1; n=7 or 9 for GFAP staining) The data was average area stained per section (as % total area) from DSP4-treated (n=3 for Mac1; n=7 for GFAP) and vehicle-treated (n=4 for Mac1; n=9 for GFAP) mice. […]

`CCN(CCCl)Cc1ccccc1Br` [DSP4, N-(2-chloroethyl)-N-ethyl-2-bromobenzylamine]: the “clinical signs of EAE” value in test [1] was “appeared sooner and were more severe”. Also, the “Mac1 staining, hippocampus and frontal cortex” value in test [2] (hippocampus effect not statistically significant) is given as “increased Mac1 staining in both regions”. For the same molecule, the “increase in Mac1 staining, frontal cortex” value in test [2] (versus vehicle, statistically significant) is “approximately 40%”.

The values are drawn from US8580776B2, “Compositions and methods for treating neurodegenerating diseases” (The Board of Trustees of the University of Illinois, priority 2007, dated 2013).
